What was measured:
Assay in all cases: biochemical
Conditions in all cases: read-out: % inhibition mean (Z'Lyte)
[1] = biological target: NIM1K (Homo sapiens, UniProt Q8IY84)
[2] = biological target: HCK (Homo sapiens, UniProt P08631)
[3] = biological target: STK23 (MSSK1) (Homo sapiens, UniProt Q9UPE1)
[4] = biological target: RPS6KA3 (RSK2) (Homo sapiens, UniProt P51812)
[5] = biological target: KIT V559D V654A (Homo sapiens, UniProt P10721, V559D/V654A)
[6] = biological target: EEF2K (Homo sapiens, UniProt O00418)
[7] = biological target: EGFR (ErbB1) T790M (Homo sapiens, UniProt P00533, T790M)
[8] = biological target: PRKCB1 (PKC beta I) (Homo sapiens, UniProt P05771)
[9] = biological target: ACVR1B (ALK4) (Homo sapiens, UniProt P36896)
[10] = biological target: PDGFRA (PDGFR alpha) (Homo sapiens, UniProt P16234)
[11] = biological target: PRKCA (PKC alpha) (Homo sapiens, UniProt P17252)
[12] = biological target: PRKD1 (PKC mu) (Homo sapiens, UniProt Q15139)
[13] = biological target: MERTK (cMER) (Homo sapiens, UniProt Q12866)
[14] = biological target: EPHB2 (Homo sapiens, UniProt P29323)
[15] = biological target: DCAMKL2 (DCK2) (Homo sapiens, UniProt Q8N568)
[16] = biological target: ROCK2 (Homo sapiens, UniProt O75116)
[17] = biological target: MINK1 (Homo sapiens, UniProt Q8N4C8)
[18] = biological target: SRC N1 (Homo sapiens, UniProt P12931)
[19] = biological target: YES1 (Homo sapiens, UniProt P07947)
[20] = biological target: MAPK11 (p38 beta) (Homo sapiens, UniProt Q15759)
[21] = biological target: KIT V560G (Homo sapiens, UniProt P10721, V560G)
[22] = biological target: PRKCN (PKD3) (Homo sapiens, UniProt O94806)
[23] = biological target: RPS6KA5 (MSK1) (Homo sapiens, UniProt O75582)
[24] = biological target: STK22B (TSSK2) (Homo sapiens, UniProt Q96PF2)
[25] = biological target: CDC42 BPB (MRCKB) (Homo sapiens, UniProt Q9Y5S2)
[26] = biological target: PTK2 (FAK) (Homo sapiens, UniProt Q05397)
[27] = biological target: PEAK1 (Homo sapiens, UniProt Q9H792)
[28] = biological target: ABL1 F317L (Homo sapiens, UniProt P00519, F317L)

Sequence of HCK (P08631 whole entry): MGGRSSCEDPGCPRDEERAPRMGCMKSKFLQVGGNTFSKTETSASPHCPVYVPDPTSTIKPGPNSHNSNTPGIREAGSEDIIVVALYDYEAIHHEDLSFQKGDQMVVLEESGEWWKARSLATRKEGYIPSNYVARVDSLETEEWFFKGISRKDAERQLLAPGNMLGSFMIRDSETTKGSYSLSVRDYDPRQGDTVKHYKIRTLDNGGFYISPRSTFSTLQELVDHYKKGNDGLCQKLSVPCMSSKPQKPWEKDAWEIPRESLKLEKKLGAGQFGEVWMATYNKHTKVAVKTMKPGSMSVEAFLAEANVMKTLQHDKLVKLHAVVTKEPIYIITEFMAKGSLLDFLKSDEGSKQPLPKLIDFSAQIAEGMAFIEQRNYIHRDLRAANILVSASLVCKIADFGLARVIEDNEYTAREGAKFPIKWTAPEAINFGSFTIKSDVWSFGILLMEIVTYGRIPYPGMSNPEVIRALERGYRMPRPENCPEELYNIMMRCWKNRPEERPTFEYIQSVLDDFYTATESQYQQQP
Sequence of CDC42 BPB (MRCKB) (Q9Y5S2 whole entry): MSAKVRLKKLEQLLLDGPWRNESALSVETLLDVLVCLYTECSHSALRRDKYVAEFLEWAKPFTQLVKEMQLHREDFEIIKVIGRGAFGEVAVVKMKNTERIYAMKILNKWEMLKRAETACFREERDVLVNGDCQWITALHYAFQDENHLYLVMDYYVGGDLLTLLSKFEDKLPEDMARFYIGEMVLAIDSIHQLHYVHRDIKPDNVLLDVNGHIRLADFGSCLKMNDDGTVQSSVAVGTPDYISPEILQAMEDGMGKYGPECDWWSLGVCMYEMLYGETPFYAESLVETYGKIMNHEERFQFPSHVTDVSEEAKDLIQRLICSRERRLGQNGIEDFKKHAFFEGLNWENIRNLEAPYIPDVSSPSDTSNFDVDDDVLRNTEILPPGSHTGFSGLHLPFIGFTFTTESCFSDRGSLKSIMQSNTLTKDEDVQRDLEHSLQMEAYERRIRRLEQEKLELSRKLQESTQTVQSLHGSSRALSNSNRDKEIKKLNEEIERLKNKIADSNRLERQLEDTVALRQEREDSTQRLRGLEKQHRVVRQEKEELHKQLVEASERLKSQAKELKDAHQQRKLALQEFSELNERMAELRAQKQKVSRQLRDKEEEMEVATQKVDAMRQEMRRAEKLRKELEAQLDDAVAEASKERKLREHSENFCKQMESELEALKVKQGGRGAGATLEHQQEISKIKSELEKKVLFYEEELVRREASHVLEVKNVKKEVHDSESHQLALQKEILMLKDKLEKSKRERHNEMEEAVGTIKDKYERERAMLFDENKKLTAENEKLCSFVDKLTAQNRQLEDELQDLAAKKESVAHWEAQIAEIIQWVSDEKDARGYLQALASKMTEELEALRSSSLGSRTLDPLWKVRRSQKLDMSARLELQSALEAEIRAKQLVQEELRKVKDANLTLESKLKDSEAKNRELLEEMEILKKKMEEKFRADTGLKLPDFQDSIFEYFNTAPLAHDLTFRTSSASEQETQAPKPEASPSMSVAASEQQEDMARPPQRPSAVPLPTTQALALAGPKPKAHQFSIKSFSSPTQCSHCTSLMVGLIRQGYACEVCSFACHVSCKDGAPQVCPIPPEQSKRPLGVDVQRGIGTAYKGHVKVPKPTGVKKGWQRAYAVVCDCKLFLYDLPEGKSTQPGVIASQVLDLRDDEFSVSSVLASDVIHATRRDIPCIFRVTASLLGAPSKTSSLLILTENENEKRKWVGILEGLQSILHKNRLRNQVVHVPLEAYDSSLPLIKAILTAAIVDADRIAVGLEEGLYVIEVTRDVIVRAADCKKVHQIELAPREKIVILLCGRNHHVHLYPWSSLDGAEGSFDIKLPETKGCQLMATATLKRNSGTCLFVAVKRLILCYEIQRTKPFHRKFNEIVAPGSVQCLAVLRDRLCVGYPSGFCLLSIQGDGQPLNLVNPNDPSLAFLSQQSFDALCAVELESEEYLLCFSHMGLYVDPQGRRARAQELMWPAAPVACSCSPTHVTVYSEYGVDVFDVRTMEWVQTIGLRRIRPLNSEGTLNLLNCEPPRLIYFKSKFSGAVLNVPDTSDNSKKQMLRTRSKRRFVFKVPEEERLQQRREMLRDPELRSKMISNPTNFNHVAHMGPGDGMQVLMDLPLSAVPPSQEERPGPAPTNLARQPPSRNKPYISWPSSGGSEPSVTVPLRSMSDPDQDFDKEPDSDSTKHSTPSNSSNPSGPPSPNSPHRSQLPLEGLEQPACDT
Sequence of PEAK1 (Q9H792 whole entry): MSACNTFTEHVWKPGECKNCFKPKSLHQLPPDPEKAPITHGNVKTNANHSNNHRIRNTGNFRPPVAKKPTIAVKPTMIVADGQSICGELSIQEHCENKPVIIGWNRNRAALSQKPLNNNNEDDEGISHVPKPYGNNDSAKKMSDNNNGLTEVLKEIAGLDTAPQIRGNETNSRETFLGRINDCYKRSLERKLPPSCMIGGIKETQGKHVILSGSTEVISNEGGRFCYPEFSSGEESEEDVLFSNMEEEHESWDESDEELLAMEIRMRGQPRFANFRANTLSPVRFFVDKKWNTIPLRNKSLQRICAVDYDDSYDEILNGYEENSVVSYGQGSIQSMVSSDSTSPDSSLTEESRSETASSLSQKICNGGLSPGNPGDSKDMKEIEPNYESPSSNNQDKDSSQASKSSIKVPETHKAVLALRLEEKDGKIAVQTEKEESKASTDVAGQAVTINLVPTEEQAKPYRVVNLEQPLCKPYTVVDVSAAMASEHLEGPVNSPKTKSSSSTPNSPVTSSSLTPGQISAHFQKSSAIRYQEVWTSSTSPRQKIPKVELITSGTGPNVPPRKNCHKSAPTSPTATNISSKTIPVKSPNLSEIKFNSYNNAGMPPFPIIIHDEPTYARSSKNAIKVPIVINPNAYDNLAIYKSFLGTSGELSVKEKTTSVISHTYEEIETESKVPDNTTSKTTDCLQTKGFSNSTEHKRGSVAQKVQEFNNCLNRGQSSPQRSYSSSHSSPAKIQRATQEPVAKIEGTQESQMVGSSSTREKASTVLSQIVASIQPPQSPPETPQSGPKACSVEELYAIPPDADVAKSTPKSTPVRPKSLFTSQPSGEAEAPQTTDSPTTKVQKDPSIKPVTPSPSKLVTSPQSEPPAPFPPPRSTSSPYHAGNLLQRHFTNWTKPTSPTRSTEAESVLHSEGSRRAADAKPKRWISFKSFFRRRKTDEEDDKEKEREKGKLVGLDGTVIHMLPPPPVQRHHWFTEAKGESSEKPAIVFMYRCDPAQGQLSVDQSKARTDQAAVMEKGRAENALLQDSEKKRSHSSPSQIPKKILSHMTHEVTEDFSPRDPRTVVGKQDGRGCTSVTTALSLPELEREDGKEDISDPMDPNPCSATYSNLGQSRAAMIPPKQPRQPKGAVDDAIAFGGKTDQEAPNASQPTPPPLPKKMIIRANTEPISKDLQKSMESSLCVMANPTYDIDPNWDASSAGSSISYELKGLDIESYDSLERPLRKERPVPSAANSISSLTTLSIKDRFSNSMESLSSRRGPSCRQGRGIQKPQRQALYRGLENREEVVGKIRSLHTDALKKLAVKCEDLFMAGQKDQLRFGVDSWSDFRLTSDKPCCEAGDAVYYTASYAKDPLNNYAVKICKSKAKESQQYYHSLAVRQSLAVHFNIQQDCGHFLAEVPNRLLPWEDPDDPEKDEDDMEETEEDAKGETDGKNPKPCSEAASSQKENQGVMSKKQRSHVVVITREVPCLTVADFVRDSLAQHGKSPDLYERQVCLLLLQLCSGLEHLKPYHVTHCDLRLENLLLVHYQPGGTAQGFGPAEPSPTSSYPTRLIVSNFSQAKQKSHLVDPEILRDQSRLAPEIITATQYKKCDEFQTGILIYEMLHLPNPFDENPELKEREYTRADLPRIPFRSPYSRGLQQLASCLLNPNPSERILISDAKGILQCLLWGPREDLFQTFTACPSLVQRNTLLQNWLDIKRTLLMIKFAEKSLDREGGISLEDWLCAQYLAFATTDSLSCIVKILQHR
Sequence of MERTK (cMER) (Q12866 whole entry): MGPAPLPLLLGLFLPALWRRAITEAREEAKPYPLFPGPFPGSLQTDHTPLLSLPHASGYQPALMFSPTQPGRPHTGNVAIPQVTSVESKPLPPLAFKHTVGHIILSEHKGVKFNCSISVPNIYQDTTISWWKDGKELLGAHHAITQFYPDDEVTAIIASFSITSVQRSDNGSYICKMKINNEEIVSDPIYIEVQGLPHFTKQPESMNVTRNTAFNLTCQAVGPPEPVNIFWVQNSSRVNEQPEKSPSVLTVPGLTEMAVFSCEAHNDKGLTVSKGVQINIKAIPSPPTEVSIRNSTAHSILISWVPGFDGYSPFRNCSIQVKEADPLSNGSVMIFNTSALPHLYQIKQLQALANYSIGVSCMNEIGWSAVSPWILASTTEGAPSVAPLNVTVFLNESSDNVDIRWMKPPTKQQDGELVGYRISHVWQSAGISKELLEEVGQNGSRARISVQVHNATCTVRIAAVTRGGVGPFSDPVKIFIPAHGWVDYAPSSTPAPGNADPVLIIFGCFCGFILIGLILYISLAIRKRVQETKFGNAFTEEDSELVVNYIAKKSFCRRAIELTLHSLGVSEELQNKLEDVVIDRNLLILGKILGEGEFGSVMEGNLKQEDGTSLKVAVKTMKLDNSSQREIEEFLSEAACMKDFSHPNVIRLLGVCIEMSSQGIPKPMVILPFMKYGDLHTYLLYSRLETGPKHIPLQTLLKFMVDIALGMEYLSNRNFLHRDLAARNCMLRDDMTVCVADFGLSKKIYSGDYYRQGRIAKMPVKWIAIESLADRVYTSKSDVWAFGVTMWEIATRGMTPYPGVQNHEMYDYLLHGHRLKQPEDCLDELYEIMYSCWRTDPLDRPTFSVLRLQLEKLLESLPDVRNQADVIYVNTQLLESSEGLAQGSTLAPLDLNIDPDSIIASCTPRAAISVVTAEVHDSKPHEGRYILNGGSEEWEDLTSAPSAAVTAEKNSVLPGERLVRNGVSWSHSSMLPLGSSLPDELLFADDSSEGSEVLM

With COc1ccc2nc3cc(Cl)ccc3c(Nc3cc(CN4CCCC4)c(O)c(CN4CCCC4)c3)c2n1 [Pyronaridine, 4-[(7-Chloro-2-methoxybenzo[b][1,5]naphthyridin-10-yl)amino]-2,6-bis(1-pyrrolidinylmethyl)phenol phosphate (1:4)] the inhibition at 1 µM [1] was -2%, the inhibition at 1 µM [2] was 4% and the inhibition at 1 µM [3] was -2%. For the same compound, the inhibition at 1 µM [4] was 10%, the inhibition at 1 µM [5] was -1% and the inhibition at 1 µM [6] was 1%. The inhibition at 1 µM [7] was 2%, the inhibition at 1 µM [8] was 2% and the inhibition at 1 µM [9] was -1%. The inhibition at 1 µM [10] was 2%, the inhibition at 1 µM [11] was 13% and the inhibition at 1 µM [12] was -2%. For the same compound, the inhibition at 1 µM [13] was 2%, the inhibition at 1 µM [14] was 4% and the inhibition at 1 µM [15] was -1%. For the same compound, the inhibition at 1 µM [16] was 1%, the inhibition at 1 µM [17] was 7% and the inhibition at 1 µM [18] was 5%. It also gave an inhibition at 1 µM [19] of -6%, an inhibition at 1 µM [20] of -8% and an inhibition at 1 µM [21] of -5%. It also gave an inhibition at 1 µM [22] of 8%, an inhibition at 1 µM [23] of 2% and an inhibition at 1 µM [24] of -2%. The inhibition at 1 µM [25] was -3%, the inhibition at 1 µM [26] was 2% and the inhibition at 1 µM [27] was 1%. The inhibition at 1 µM [28] was -1%.

Reference: publication doi:10.1101/2021.09.30.462449v1 (biorxiv, 2021)
